{"source": "paper PMC9669016", "about": "“First-in-human phase Ia study of the PI3Kα inhibitor CYH33 in patients with solid tumors” (Nature Communications, 2022)", "origin": "cited, not measured here", "key": {"CYP2C9": {"tested_on": "CYP2C9", "design": "method as in Investigator's Brochure (IB) 12", "settings": "up to 100 µM; ref Investigator's Brochure (IB) 12; cited from earlier work"}, "[1]": {"tested_on": "EC074 esophageal cancer PDX", "design": "method as in Investigator's Brochure (IB) 12", "settings": "25 mg/kg oral for 21 days; ref Investigator's Brochure (IB) 12; cited from earlier work"}, "[2]": {"design": "method as in Investigator's Brochure (IB) 12", "settings": "dogs, without concentration dependency; ref Investigator's Brochure (IB) 12; cited from earlier work"}, "[3]": {"design": "method as in Study Protocol CYH33-101 Table 2", "settings": "ref Study Protocol CYH33-101 Table 2; cited from earlier work"}, "human hepatocytes": {"tested_on": "human hepatocytes", "design": "method as in Investigator's Brochure (IB) 12", "settings": "ref Investigator's Brochure (IB) 12; cited from earlier work"}, "Beagle dogs": {"tested_on": "Beagle dogs", "design": "method as in Investigator's Brochure (IB) 12", "settings": "long-term, ref Investigator's Brochure (IB) 12; cited from earlier work"}, "CYP3A4": {"tested_on": "CYP3A4", "design": "method as in Investigator's Brochure (IB) 12", "settings": "up to 100 µM; ref Investigator's Brochure (IB) 12; cited from earlier work"}}, "data": [{"molecule": "COC(=O)Nc1cc(C(F)(F)F)c(-c2nc(N3CCOCC3)c3cc(CN4CCN(S(C)(=O)=O)CC4)cn3n2)cn1", "note": "[CYH33, methyl (5-(6-((4-(methylsulfonyl)piperazin-1-yl)methyl)−4-morpholinopyrrolo[2,1-f][1,2,4]triazin-2-yl)−4-(trifluoromethyl)pyridin-2-yl)carbamate]", "values": [{"measurement": "inhibition of CYP2C9", "setting": "CYP2C9", "value": "did not inhibit"}, {"measurement": "T/C ratio", "setting": "[1]", "value": 36.78, "unit": "%"}, {"measurement": "plasma protein binding (PPB)", "setting": "[2]", "value": 97.1, "unit": "%"}, {"measurement": "log P", "setting": "[3]", "value": 2.89}, {"measurement": "oxidative metabolites in human hepatocytes", "setting": "human hepatocytes", "value": "not detected"}, {"measurement": "highest non-severely toxic dose (HNSTD)", "setting": "Beagle dogs", "value": 0.2, "unit": "mg/kg"}, {"measurement": "inhibition of CYP3A4", "setting": "CYP3A4", "value": "did not inhibit"}]}]}
